Results reported in patent US20260272865A1, “HYDROXYPHENYL PROPANOATE COMPOUNDS FOR TUMOUR IMMUNOTHERAPY, COMPOSITIONS AND USES THEREOF” (UTI LIMITED PARTNERSHIP, priority 2023, published 2026).

Target: T1, GSDMD (Homo sapiens, UniProt P57764)
T1 construct: host or cells: THP1-Dual cells (human monocytic reporter line)
T1 sequence (P57764 1-484): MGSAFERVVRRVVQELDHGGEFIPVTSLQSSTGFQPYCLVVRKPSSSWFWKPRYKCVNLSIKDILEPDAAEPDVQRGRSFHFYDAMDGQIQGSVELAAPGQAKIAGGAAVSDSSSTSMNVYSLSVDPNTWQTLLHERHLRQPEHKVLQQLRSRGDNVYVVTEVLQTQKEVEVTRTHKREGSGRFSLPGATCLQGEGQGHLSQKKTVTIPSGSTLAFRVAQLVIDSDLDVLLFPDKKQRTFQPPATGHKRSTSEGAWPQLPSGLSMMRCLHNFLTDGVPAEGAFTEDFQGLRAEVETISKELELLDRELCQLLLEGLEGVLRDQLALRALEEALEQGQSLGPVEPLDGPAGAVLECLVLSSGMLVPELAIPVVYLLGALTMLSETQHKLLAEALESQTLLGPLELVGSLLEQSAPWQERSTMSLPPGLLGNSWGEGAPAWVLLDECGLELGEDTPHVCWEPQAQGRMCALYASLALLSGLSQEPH
Assay: Thermal proteomic profiling (TPP) in intact THP1-Dual cells
Format: binding
Protocol: 24 mL of THP1-Dual™ cells (at a density of 1.5×10^6 cells/mL) were treated with 2 mM metabolite or vehicle control for 16 hours. The cells were then centrifuged at 340×g for 5 minutes at 4° C., resuspended in 20 mL of ice-cold PBS, and centrifuged again. The cells were resuspended in 1200 μL of PBS, divided into 10 aliquots of 100 μL in 0.2 mL PCR tubes and centrifuged at 325×g for 2 minutes at 4° C. 80 μL of the PBS supernatant was removed using a pipette and the tubes were gently tapped to resuspend the cells. Each of the metabolite and vehicle-treated cell tubes were then heated in parallel in a PCR machine for 3 minutes at temperatures ranging from 37° C. to 67° C. […] The entire content was centrifuged at 100,000×g for 20 minutes at 4° C., the supernatant was removed into a fresh tube, and the protein concentration of the 37° C. sample was measured. […] The volume of lysate that gave 200 μg of protein at the 37° C. temperature point was determined and removed into a fresh tube for all other temperature points.
The proteins were cleaned up and the peptides digested following previously described methods (Science 346, (2014); Nat. Protoc. 10, 1567-1593 (2015)). […] The next day, the digested peptides were transferred to a fresh Eppendorf™ tube and the concentration of peptides measured in the 37° C. temperature point. […]

## O=C(O)CCc1ccccc1O [Compound I-1, 3-(2-hydroxyphenyl)propanoic acid]
NPARC test
  GSDMD protein denaturation curve: impacted
proteome-wide, 2 mM metabolite, 16 hours
  number of potential protein targets identified (NPARC): 647
